# Experimental data taken from EP4806899A1, “FUSED RING DERIVATIVE, PREPARATION METHOD THEREFOR AND USE THEREOF IN MEDICINE” (Shanghai Qilu Pharmaceutical Research and Development …, priority 2023, dated 2025).
# Legend:
# [1] = target: T1, human CYP11B2 enzyme (Homo sapiens, UniProt P19099); assay: Enzyme inhibition activity assay in G402 cells stably expressing human CYP11B2 (aldosterone production from 11-DOC, LC/MS); format: cell-based; details: 1 µM 11-DOC, 16 hours, aldosterone detected
# T1 construct: the ORF of human CYP11B1 or CYP11B2 were transfected into G402 cells; expressed in transfected cells
# T1 sequence (P19099 25-503): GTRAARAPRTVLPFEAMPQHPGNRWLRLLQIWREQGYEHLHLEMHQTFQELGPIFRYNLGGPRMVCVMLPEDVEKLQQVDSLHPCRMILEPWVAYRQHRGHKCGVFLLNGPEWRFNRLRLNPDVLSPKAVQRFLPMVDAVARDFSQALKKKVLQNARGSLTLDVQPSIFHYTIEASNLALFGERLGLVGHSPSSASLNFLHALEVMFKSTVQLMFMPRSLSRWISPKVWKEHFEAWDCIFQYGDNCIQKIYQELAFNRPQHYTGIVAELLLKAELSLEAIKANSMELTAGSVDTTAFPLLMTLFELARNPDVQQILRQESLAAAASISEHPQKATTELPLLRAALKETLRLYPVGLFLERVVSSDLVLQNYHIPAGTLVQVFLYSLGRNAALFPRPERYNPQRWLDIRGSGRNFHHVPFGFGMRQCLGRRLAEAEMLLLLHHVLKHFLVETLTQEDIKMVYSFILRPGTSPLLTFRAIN
# Outline: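 G402 cells stably expressing human CYP11B2 or CYP11B1, preincubated 1 h with inhibitor in DMEM/F12 plus 2.5% charcoal-stripped FCS, then 16 h with 1 µM 11-DOC or 1 µM 11-DC. Aldosterone or cortisol quantified by LC/MS; IC50 from four-parameter logistic fit versus uninhibited control.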
# [2] = system: plasma hormone levels; assay: Pharmacodynamic determination in monkeys: plasma aldosterone and cortisol after ACTH stimulation; format: in vivo, cynomolgus monkeys; details: P.O.
# Description: Cynomolgus monkeys were used as test animals to evaluate the pharmacodynamics of multiple compounds of the present disclosure on plasma hormone levels following gavage administration (P.O.) at various doses such as 0.1 mpk (and others, e.g., 0.03 mpk, 0.1 mpk, and 0.3 mpk).
# Male cynomolgus monkeys, Suzhou Xishan Zhongke Laboratory Animal Co., Ltd. Animal production license number: SCXK (Su) 2023-0001, animal use license number: SYXK (Su) 2020-0017.
# Male cynomolgus monkeys were performed gavage administration (P.O.) at doses set as: 0 mpk (vehicle group, i.e., Veh group), 0.03 mpk, 0.1 mpk, and 0.3 mpk. In each group, 15 µg/kg ACTH was injected intramuscularly 1 hour after dosing. Continuous venous blood samples were collected from each group at 1 hour before administration and at multiple time points after administration. Blood samples were collected, and plasma aldosterone and its precursors, as well as plasma corticosterone and its precursors, at multiple time points were analyzed using LC/MS methods.
# Venous blood samples were collected at 1-2 hours before gavage administration and at multiple time points after intramuscular injection of ACTH (adrenocorticotropic hormone). The samples were placed in EDTA-K2 tubes, centrifuged at 4 °C, 2600 g for 10 minutes to separate plasma, which was then stored at -80 °C.
# • HPLC: Waters ACQUITY UPLC I-Class PLUS; • Mass spectrometry conditions: Triple Quad™ 7500 (Serial No. FA224362212) mass spectrometer; • Chromatographic column: phenomenex kinetex 2.6µm C8 100A 50 × 4.60 mm; • Mobile phase: mobile phase A was 0.5 mM ammonium fluoride solution containing 0.1% formic acid; mobile phase B was MeOH.
# The data in Figs. 1, 2, 3, 4, and 5 are analyzed based on PD changes at 30 minutes after ACTH stimulation. The percentage of PD relative to the control group (Veh group) at 30 minutes after ACTH stimulation serves as the main basis for pharmacodynamic evaluation, calculated according to the following formula: [formula] where PD refers to aldosterone or cortisol. Table 8 Pharmacodynamic Evaluation of Example Compound C44 in Monkeys
# [3] = in vivo; details: rat, in vivo, po, 10 mg/kg
# Description: Mice and rats were used as test animals to study the pharmacokinetic behavior of the compounds of the present disclosure in plasma following gavage administration (P.O.). Plasma samples were collected at specific time points, compound concentrations in plasma were detected by LC-MS/MS, and pharmacokinetic parameters were calculated to evaluate the pharmacokinetics.
# • Mice, CD-1, male, Zhejiang Vital River Laboratory Animal Technology Co., Ltd. • Rats, Sprague-Dawley, male, Zhejiang Vital River Laboratory Animal Technology Co., Ltd., Shanghai Jihui Experimental Animal Breeding Co., Ltd.
# After administration to mice and rats, venous blood samples of 0.03 mL and 0.2 mL, respectively, were collected at 0.0833 (IV), 0.25, 0.5, 1, 2, 4, 8, and 24 hours and placed in EDTA-K2 test tubes. Plasma was separated by centrifugation at 4 °C, 4000 g for 5 minutes and stored at -80 °C.
# • 1) 50 µL of plasma sample was precipitated by adding 200 µL of acetonitrile, vortex mixed, and centrifuged for 15 minutes. • 2) The processed supernatant was diluted with water and analyzed by LC/MS/MS to determine the concentration of the test compound.
# Pharmacokinetic parameters were calculated using WinNonlin 8.3. […] Cmax represents the maximum plasma concentration, T1/2 represents the terminal elimination half-life, MRTInf represents the mean residence time, and AUC represents the area under the plasma concentration-time curve.
# [4] = 0.03 mpk, 30min after ACTH stimulation, plasma
# [5] = 0.1 mpk, 30min after ACTH stimulation, plasma
# [6] = 0.3 mpk, 30min after ACTH stimulation, plasma
smiles,measurement,setting,value
[2H]C([2H])([2H])OC(=O)N[C@@H]1CCOc2c(-c3cc(F)c4c(ccc(=O)n4C)c3)cncc21 [Compound A50],IC50,[1],11.1 nM
same,Aldosterone,"[2]; 0.03 mpk, 0h, plasma",0.12 ng/mL
same,Cortisol,"[2]; 0.03 mpk, 0h, plasma",358.3 ng/mL
same,Aldosterone,[2]; [4],0.22 ng/mL
same,Cortisol,[2]; [4],430.0 ng/mL
same,Aldosterone,"[2]; 0.1 mpk, 0h, plasma",0.49 ng/mL
same,Cortisol,"[2]; 0.1 mpk, 0h, plasma",282.0 ng/mL
same,Aldosterone,[2]; [5],0.12 ng/mL
same,Cortisol,[2]; [5],386.0 ng/mL
same,Aldosterone,"[2]; 0.3 mpk, 0h, plasma",0.12 ng/mL
same,Cortisol,"[2]; 0.3 mpk, 0h, plasma",304.7 ng/mL
same,Aldosterone,[2]; [6],0.06 ng/mL
same,Cortisol,[2]; [6],369.7 ng/mL
CCC(=O)N[C@@H]1CCOc2c(-c3ccc4c(c3)CCC(=O)N4C)cncc21 [Compound A02-P2],IC50,[1],12.3 nM
same,AUC(0-t) at 24 h,[3],190 µM·h
same,Cmax,[3],22.7 µM
same,MRT inf,[3],5.3 h
same,half-life,[3],3.47 h
same,Cortisol,"[2]; 0.03 mpk, 0h, plasma",269.0 ng/mL
same,Aldosterone,"[2]; 0.03 mpk, 0h, plasma (Table 12)",0.13 ng/mL
same,Cortisol,[2]; [4],384.0 ng/mL
same,Aldosterone,"[2]; 0.03 mpk, 30min after ACTH stimulation, plasma (Table 12)",0.27 ng/mL
same,Cortisol,"[2]; 0.1 mpk, 0h, plasma",436.0 ng/mL
same,Aldosterone,"[2]; 0.1 mpk, 0h, plasma (Table 12)",0.40 ng/mL
same,Cortisol,[2]; [5],599.0 ng/mL
same,Aldosterone,"[2]; 0.1 mpk, 30min after ACTH stimulation, plasma (Table 12)",0.20 ng/mL
same,Aldosterone,"[2]; 0.3 mpk (dose printed 03), 0h, plasma (Table 12)",0.13 ng/mL
same,Aldosterone,"[2]; 0.3 mpk (dose printed 03), 30min after ACTH stimulation, plasma (Table 12)",0.05 ng/mL
same,Cortisol,"[2]; 0.3 mpk, 0h, plasma",283.0 ng/mL
same,Cortisol,[2]; [6],387.0 ng/mL
